These results are taken from article PMC10272271, “MAM-2201 acute administration impairs motor, sensorimotor, prepulse inhibition, and memory functions in mice: a comparison with its analogue AM-2201” (Psychopharmacology, 2023).

One assay addresses T1, human CB2 receptors (Homo sapiens, UniProt P34972).
T1 construct: host or cells: CHO cells
Briefly: [3H]-CP-55,940 competition binding, hCB2 CHO membranes. The method, then:
CHO cells transfected with human CB1 or CB2 receptors (Perkin Elmer Life and Analytical Sciences, USA) were grown adherently and maintained in Ham’s F12 containing 10% fetal bovine serum, penicillin (100 U/ml), streptomycin (100 µg/ml), and Geneticin (G418, 0.4 mg/ml) at 37 °C in 5% CO2/95% air. To obtain membranes, cells were washed with PBS and scraped off with ice-cold hypotonic buffer (5 mM Tris HCl, 2 mM EDTA, pH 7.4). The cell suspension was homogenized with a Polytron and then centrifuged for 30 min at 40,000 × g. […]
(§1) Competition binding experiments were carried out incubating 0.5 nM [^3H]-CP-55,940 (Perkin Elmer Life and Analytical Sciences, USA) and different concentrations of the tested compounds for 90 or 60 min at 30 °C for CB1 or CB2 receptors, respectively. […] Non-specific binding was determined in the presence of 1 mM WIN 55,212–2 (Vincenzi et al. [2013]). Bound and free radioactivity were separated by filtering the assay mixture through Whatman GF/C glass fiber filters using a Brandel cell harvester (Brandel Instruments, Unterföhring, Germany). The filter-bound radioactivity was counted using a Packard Tri Carb 2810 TR scintillation counter (Perkin Elmer Life and Analytical Sciences, USA).
(§2) The protein concentration was determined according to a Bio-Rad method (500–0006; Bio-Rad Laboratories, Hercules, CA, USA) with bovine serum albumin as a reference standard. […]

A further assay concerns the target T2, murine CB2 receptors (Mus musculus, UniProt P47936).
T2 construct: membranes from mouse brain and spleen were used, respectively; from tissue; host or cells: mouse spleen membranes, CD-1 mice
Briefly: [3H]-CP-55,940 competition binding, mouse spleen membranes. As to the method: To evaluate the affinity of synthetic cannabinoids for murine CB1 and CB2 receptors, membranes from mouse brain and spleen were used, respectively. Following excision from mice, tissues were suspended in 50 mM Tris HCl, pH 7.4 at 4 °C. The mouse brain and spleen tissues were homogenized with a Polytron and subsequently centrifuged for 10 min at 2000 × g. The resulting supernatants were filtered, centrifuged for 20 min at 40,000 × g and the pellets were used for competition binding experiments (Vincenzi et al. [2013]).
as §1, §2

A further assay has as its target CB1 receptors. Also noted: method as in Howlett et al. [2002]; Hess et al. [2015]. The settings on record: ref Howlett et al. [2002]; Hess et al. [2015]; read-out: CB1 receptor Ki; cited from earlier work.

T2 sequence (P47936 whole entry): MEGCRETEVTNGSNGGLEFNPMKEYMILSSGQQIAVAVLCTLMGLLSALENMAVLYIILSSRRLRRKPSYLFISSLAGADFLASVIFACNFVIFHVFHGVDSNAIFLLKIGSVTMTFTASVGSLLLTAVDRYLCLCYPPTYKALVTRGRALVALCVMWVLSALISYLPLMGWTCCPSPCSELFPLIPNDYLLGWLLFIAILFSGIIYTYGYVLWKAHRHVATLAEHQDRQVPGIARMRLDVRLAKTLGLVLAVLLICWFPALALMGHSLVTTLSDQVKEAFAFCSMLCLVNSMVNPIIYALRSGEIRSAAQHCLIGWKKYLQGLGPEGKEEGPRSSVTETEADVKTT
T1 sequence (P34972 whole entry): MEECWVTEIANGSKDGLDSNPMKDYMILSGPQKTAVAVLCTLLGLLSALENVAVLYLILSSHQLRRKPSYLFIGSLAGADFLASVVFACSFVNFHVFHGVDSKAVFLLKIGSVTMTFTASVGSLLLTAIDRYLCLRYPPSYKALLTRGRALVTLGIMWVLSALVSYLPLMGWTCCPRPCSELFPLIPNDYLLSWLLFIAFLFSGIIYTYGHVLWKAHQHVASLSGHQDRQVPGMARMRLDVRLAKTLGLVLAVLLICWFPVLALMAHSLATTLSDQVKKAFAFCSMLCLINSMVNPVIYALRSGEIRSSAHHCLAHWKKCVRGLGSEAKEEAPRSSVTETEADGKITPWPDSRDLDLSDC

Usually Ki stands for a dissociation constant, usually derived from enzyme kinetics or from competition with a known ligand. For the compound `O=C(c1cccc2ccccc12)c1cn(CCCCCF)c2ccccc12` [AM-2201, 1-[(5-Fluoropentyl)-1H-indol-3-yl](1-naphthylenyl) methanone], the Ki on human CB2 receptors was 16.4 ± 1.5 nM; at murine CB2 receptors, 14.6 ± 1.2 nM; on CB1 receptors, 1 nM.

Consider `Cc1ccc(C(=O)c2cn(CCCCCF)c3ccccc23)c2ccccc12` [MAM-2201, 1-[(5-fluoropentyl)-1H-indol-3-yl](4-methyl-1-naphthalenyl) methanone], for which the Ki is 10.3 ± 2.1 nM on human CB2 receptors, 9.6 ± 1.9 nM on murine CB2 receptors and 2.07 ± 0.82 nM on CB1 receptors.
